Source: patent publication US9199962B2, “Substituted azaheterocycles for the treatment of cancer” (Merck Patent GmbH, priority 2011, dated 2015)

Biological target: T1, GST-FAK (N-terminal GST fusion with truncated human FAK (376-1052 (end) amino acids)) (Homo sapiens, UniProt Q05397)
T1 construct: truncated human FAK (376-1052 (end) amino acids)
Test: Biochemical enzyme assay for FAK activity (Caliper LC3000 mobility shift)
Conditions: Table 1; 100 uM ATP; read-out: FAK IC50
Method: 1. Biochemical Enzyme Assays for FAK Activity
The FAK assays described here are performed on two Caliper Life Sciences systems, the LC3000 and the EZ Reader II. These provide data on enzyme activity via measurement of the relative amounts of phosphorylated or unphosphorylated fluorescently labelled substrate peptide at the end of an enzymatic reaction. These different states of peptide are resolved by applying a potential difference across the sample. The presence of the charged phosphate group on the product (as opposed to the substrate) causes different peptide mobility between the two peptides. This is visualized by excitation of the fluorescent label on the substrate and product peptides and represented as peaks within the analysis software.
In order to measure inhibitor activity of FAK, inhibitors in the Caliper Life Sciences LC3000, a TTP Mosquito liquid handling instrument is used to place 0.25 ul of the appropriate concentration of inhibitor in 100% DMSO (for a dose response curve calculation) into each well of a 384-well plate. To this reaction components are added to a final volume of 25 ul: • 0.067 ng/ul GST-FAK (N-terminal GST fusion with truncated human FAK (376-1052 (end) amino acids)) • 100 uM ATP • 1 mM DTT • 1 mM MgCl2 • 1 uM substrate peptide (sequence FITC-KGWMEDYDYVHLQGKK-(CONH2)SEQ ID NO: 1)) • 1 mM FERM peptide (sequence NH2-GATQSFIIR-COOH (SEQ ID NO: 2)) • 100 mM HEPES pH 7.5 • 0.015% Brij-35
The reaction is incubated for 90 min at 25 C, and then stopped by the addition of 70 ul of Stop buffer (100 mM HEPES pH 7.5, 0.015% Brij-35, 10 mM EDTA).
The plate is read on a Caliper LC 3000 in an Off-Chip mobility shift assay format, using the following parameters for a 12-sipper chip: screening pressure—1.9 psi, upstream voltage—3000, downstream voltage—700. These conditions cause unphosphorylated substrate and phosphorylated product peptide to resolve as separate peaks allowing direct measurement of percentage of conversion of substrate to product. The percent conversion can be plotted against concentration of inhibitor to produce a sigmoid dose response curve, from which an IC50 can be calculated using XLFit for Microsoft Excel.

T1 sequence (Q05397 376-1052): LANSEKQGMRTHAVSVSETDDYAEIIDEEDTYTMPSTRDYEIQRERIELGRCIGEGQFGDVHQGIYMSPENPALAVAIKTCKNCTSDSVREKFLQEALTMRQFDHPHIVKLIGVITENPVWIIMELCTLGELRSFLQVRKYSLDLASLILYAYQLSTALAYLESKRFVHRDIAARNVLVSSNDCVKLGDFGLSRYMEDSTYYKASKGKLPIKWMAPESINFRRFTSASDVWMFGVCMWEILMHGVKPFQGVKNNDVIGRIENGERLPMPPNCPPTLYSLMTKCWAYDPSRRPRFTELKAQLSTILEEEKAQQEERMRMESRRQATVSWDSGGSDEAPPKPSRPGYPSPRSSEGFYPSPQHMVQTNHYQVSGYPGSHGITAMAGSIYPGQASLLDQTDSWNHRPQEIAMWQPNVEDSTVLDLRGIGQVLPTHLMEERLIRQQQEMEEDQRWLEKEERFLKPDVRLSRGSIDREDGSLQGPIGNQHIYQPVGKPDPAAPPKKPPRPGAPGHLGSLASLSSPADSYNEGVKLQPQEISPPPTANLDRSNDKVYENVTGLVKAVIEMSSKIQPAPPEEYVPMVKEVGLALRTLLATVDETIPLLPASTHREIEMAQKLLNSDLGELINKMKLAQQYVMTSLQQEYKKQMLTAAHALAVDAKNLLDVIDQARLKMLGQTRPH

| SMILES | IC50 |
| --- | --- |
| COc1cncc(-c2nccc(NCc3ccc(OC)c(F)c3F)n2)c1 [Compound 1, (2,3-Difluoro-4-methoxy-benzyl)-[2-(5-methoxy-pyridin-3-yl)-pyrimidin-4-yl]-amine] | 1 to 10 µM |
| COc1cncc(-c2nccc(NCc3ccc(Oc4ccc(F)cc4)cc3)n2)c1 [Compound 2, [4-(4-Fluoro-phenoxy)-benzyl]-[2-(5-methoxy-pyridin-3-yl)-pyrimidin-4-yl]-amine] | > 10 µM |
| COc1cncc(-c2nccc(NCc3cccc(Oc4cnccn4)c3)n2)c1 [Compound 3, [2-(5-Methoxy-pyridin-3-yl)-pyrimidin-4-yl]-[3-(pyrazin-2-yloxy)-benzyl]-amine] | > 10 µM |
| COc1cncc(-c2nccc(NCc3ccc(N4CCOCC4)cc3)n2)c1 [Compound 4, [2-(5-Methoxy-pyridin-3-yl)-pyrimidin-4-yl]-(4-morpholin-4-yl-benzyl)-amine] | > 10 µM |
| COc1cncc(-c2nccc(NCc3cccc(-n4cccn4)c3)n2)c1 [Compound 5, [2-(5-Methoxy-pyridin-3-yl)-pyrimidin-4-yl]-(3-pyrazol-1-yl-benzyl)-amine] | 1 to 10 µM |
| COc1cncc(-c2nccc(NCc3ccc4c(c3)OCCO4)n2)c1 [Compound 6, (2,3-Dihydro-benzo[1,4]dioxin-6-ylmethyl)-[2-(5-methoxy-pyridin-3-yl)-pyrimidin-4-yl]-amine] | > 10 µM |
| Fc1ccc(Oc2ccc(CNc3ccnc(-c4cncc(F)c4)n3)cc2)cc1 [Compound 7, [4-(4-Fluoro-phenoxy)-benzyl]-[2-(5-fluoro-pyridin-3-yl)-pyrimidin-4-yl]-amine] | > 10 µM |
| CC1(C)Cc2cccc(CNc3ccnc(-c4cncc(F)c4)n3)c2O1 [Compound 8, (2,2-Dimethyl-2,3-dihydro-benzofuran-7-ylmethyl)-[2-(5-fluoro-pyridin-3-yl)-pyrimidin-4-yl]-amine] | > 10 µM |
| Fc1cncc(-c2nccc(NCc3cccc(Oc4cnccn4)c3)n2)c1 [Compound 9, [2-(5-Fluoro-pyridin-3-yl)-pyrimidin-4-yl]-[3-(pyrazin-2-yloxy)-benzyl]-amine] | > 10 µM |
| Fc1cncc(-c2nccc(NCc3ccc(N4CCOCC4)cc3)n2)c1 [Compound 10, [2-(5-Fluoro-pyridin-3-yl)-pyrimidin-4-yl]-(4-morpholin-4-yl-benzyl)-amine] | > 10 µM |
| Fc1cncc(-c2nccc(NCc3cccc(-n4cccn4)c3)n2)c1 [Compound 11, [2-(5-Fluoro-pyridin-3-yl)-pyrimidin-4-yl]-(3-pyrazol-1-yl-benzyl)-amine] | > 10 µM |
| Fc1cncc(-c2nccc(NCc3ccc4c(c3)OCCO4)n2)c1 [Compound 12, (2,3-Dihydro-benzo[1,4]dioxin-6-ylmethyl)-[2-(5-fluoro-pyridin-3-yl)-pyrimidin-4-yl]-amine] | > 10 µM |
| O=C(c1cncc(-c2nccc(NCc3ccc(Oc4ccc(F)cc4)cc3)n2)c1)N1CCOCC1 [Compound 13, (5-{4-[4-(4-Fluoro-phenoxy)-benzylamino]-pyrimidin-2-yl}-pyridin-3-yl)-morpholin-4-yl-methanone] | > 10 µM |
| O=C(c1cncc(-c2nccc(NCc3ccc(N4CCOCC4)cc3)n2)c1)N1CCOCC1 [Compound 14, Morpholin-4-yl-{5-[4-(4-morpholin-4-yl-benzylamino)-pyrimidin-2-yl]-pyridin-3-yl}-methanone] | > 10 µM |
| O=C(c1cncc(-c2nccc(NCc3ccc4c(c3)OCCO4)n2)c1)N1CCOCC1 [Compound 15, (5-{4-[(2,3-Dihydro-benzo[1,4]dioxin-6-ylmethyl)-amino]-pyrimidin-2-yl}-pyridin-3-yl)-morpholin-4-yl-methanone] | > 10 µM |
| COc1cncc(-c2nccc(NCc3ccc(Cl)cc3F)n2)c1 [Compound 16, (4-Chloro-2-fluoro-benzyl)-[2-(5-methoxy-pyridin-3-yl)-pyrimidin-4-yl]-amine] | 0.1 to 1 µM |
| COc1cncc(-c2nccc(NCc3cccc4c3OC(C)(C)C4)n2)c1 [Compound 17, (2,2-Dimethyl-2,3-dihydro-benzofuran-7-ylmethyl)-[2-(5-methoxy-pyridin-3-yl)-pyrimidin-4-yl]-amine] | > 10 µM |
| CC1(C)Cc2cccc(CNc3ccnc(-c4cncc(Cl)c4)n3)c2O1 [Compound 18, [2-(5-Chloro-pyridin-3-yl)-pyrimidin-4-yl]-(2,2-dimethyl-2,3-dihydro-benzofuran-7-ylmethyl)-amine] | > 10 µM |

| SMILES | IC50 |
| --- | --- |
| Clc1cncc(-c2nccc(NCc3cccc(Oc4cnccn4)c3)n2)c1 [Compound 19, [2-(5-Chloro-pyridin-3-yl)-pyrimidin-4-yl]-[3-(pyrazin-2-yloxy)-benzyl]-amine] | > 10 µM |
| Clc1cncc(-c2nccc(NCc3ccc(N4CCOCC4)cc3)n2)c1 [Compound 20, [2-(5-Chloro-pyridin-3-yl)-pyrimidin-4-yl]-(4-morpholin-4-yl-benzyl)-amine] | > 10 µM |
| COc1ccc(CNc2ccnc(-c3cncc(F)c3)n2)c(F)c1F [Compound 21, (2,3-Difluoro-4-methoxy-benzyl)-[2-(5-fluoro-pyridin-3-yl)-pyrimidin-4-yl]-amine] | 1 to 10 µM |
| O=C(c1cncc(-c2nccc(NCc3ccc(Cl)cc3F)n2)c1)N1CCOCC1 [Compound 22, {5-[4-(4-Chloro-2-fluoro-benzylamino)-pyrimidin-2-yl]-pyridin-3-yl}-morpholin-4-yl-methanone] | > 10 µM |
| O=C(c1cncc(-c2nccc(NCc3cccc(Oc4cnccn4)c3)n2)c1)N1CCOCC1 [Compound 23, Morpholin-4-yl-(5-{4-[3-(pyrazin-2-yloxy)-benzylamino]-pyrimidin-2-yl}-pyridin-3-yl)-methanone] | > 10 µM |
| COc1ccc(CNc2ccnc(-c3cncc(C(F)(F)F)c3)n2)c(F)c1F [Compound 24, (2,3-Difluoro-4-methoxy-benzyl)-[2-(5-trifluoromethyl-pyridin-3-yl)-pyrimidin-4-yl]-amine] | 1 to 10 µM |
| Fc1ccc(Oc2ccc(CNc3ccnc(-c4cncc(C(F)(F)F)c4)n3)cc2)cc1 [Compound 25, [4-(4-Fluoro-phenoxy)-benzyl]-[2-(5-trifluoromethyl-pyridin-3-yl)-pyrimidin-4-yl]-amine] | > 10 µM |
| CC1(C)Cc2cccc(CNc3ccnc(-c4cncc(C(F)(F)F)c4)n3)c2O1 [Compound 26, (2,2-Dimethyl-2,3-dihydro-benzofuran-7-ylmethyl)-[2-(5-trifluoromethyl-pyridin-3-yl)-pyrimidin-4-yl]-amine] | > 10 µM |
| FC(F)(F)c1cncc(-c2nccc(NCc3cccc(Oc4cnccn4)c3)n2)c1 [Compound 27, [3-(Pyrazin-2-yloxy)-benzyl]-[2-(5-trifluoromethyl-pyridin-3-yl)-pyrimidin-4-yl]-amine] | > 10 µM |
| FC(F)(F)c1cncc(-c2nccc(NCc3ccc(N4CCOCC4)cc3)n2)c1 [Compound 28, (4-Morpholin-4-yl-benzyl)-[2-(5-trifluoromethyl-pyridin-3-yl)-pyrimidin-4-yl]-amine] | > 10 µM |
| FC(F)(F)c1cncc(-c2nccc(NCc3cccc(-n4cccn4)c3)n2)c1 [Compound 29, (3-Pyrazol-1-yl-benzyl)-[2-(5-trifluoromethyl-pyridin-3-yl)-pyrimidin-4-yl]-amine] | 1 to 10 µM |
| FC(F)(F)c1cncc(-c2nccc(NCc3ccc4c(c3)OCCO4)n2)c1 [Compound 30, (2,3-Dihydro-benzo[1,4]dioxin-6-ylmethyl)-[2-(5-trifluoromethyl-pyridin-3-yl)-pyrimidin-4-yl]-amine] | > 10 µM |
| Fc1ccc(Oc2ccc(CNc3ccnc(-c4cncc(Cl)c4)n3)cc2)cc1 [Compound 31, [2-(5-Chloro-pyridin-3-yl)-pyrimidin-4-yl]-[4-(4-fluoro-phenoxy)-benzyl]-amine] | > 10 µM |
| Fc1cc(Cl)ccc1CNc1ccnc(-c2cncc(Cl)c2)n1 [Compound 32, (4-Chloro-2-fluoro-benzyl)-[2-(5-chloro-pyridin-3-yl)-pyrimidin-4-yl]-amine] | < 0.1 µM |
| Fc1cncc(-c2nccc(NCc3ccc(Cl)cc3F)n2)c1 [Compound 33, (4-Chloro-2-fluoro-benzyl)-[2-(5-fluoro-pyridin-3-yl)-pyrimidin-4-yl]-amine] | < 0.1 µM |
| O=C(c1cncc(-c2nccc(NCc3cccc(-n4cccn4)c3)n2)c1)N1CCOCC1 [Compound 34, Morpholin-4-yl-{5-[4-(3-pyrazol-1-yl-benzylamino)-pyrimidin-2-yl]-pyridin-3-yl}-methanone] | > 10 µM |
| Fc1cc(Cl)ccc1CNc1ccnc(-c2cncc(C(F)(F)F)c2)n1 [Compound 35, (4-Chloro-2-fluoro-benzyl)-[2-(5-trifluoromethyl-pyridin-3-yl)-pyrimidin-4-yl]-amine] | < 0.1 µM |
